Data as given in patent publication US20040053234A1, “Polynucletides that control delta-6 desaturase genes and methods for identifying compounds for modulating delta-6 desaturase” (priority 2000, published 2004).
Read-outs that look alike come from different tables or passages of the source. Marks after values point to notes of the source that are not given here.

Key:
delta-5-desaturase = assay: Hepatic delta-5-desaturase activity in streptozotocin treated rats; type: in vivo, rat; settings: hepatic microsomes
Experimental: As described in other Examples, female Wistar rats were intraperitoneally (i.p.) injected with 50 mg of streptozotocin per kg of body weight. Three days later, animals received a second dose of streptozotocin (25 mg/kg body weight). Two and 7 weeks after the onset of diabetes, non-fasted control and streptozotocin (blood glucose levels 21 to >33 mmoles/L) treated rats were put under light halothane (15% in mineral oil) anaesthesia and sacrificed by exsanguination between 9:00 and 10:00 a.m. […] The absence of mitochondrial contamination was enzymatically assessed as previously described (Kilberg M. S. and Christensen H. N., 1979, Biochemistry, 18: 1525-1530). The protein concentration was measured by the method of Lowry et al. with bovine serum albumin as the standard (Lowry et al., 1951, J. Biol. Chem., 193: 265-275).
(§1) The activities of delta-5 and delta-6 desaturases were determined by measuring the conversion of [1-^14C]20:3n-6 (dihomogamma-linolenic acid) to [1-^14C]20:4n-6 (arachidonic acid) and [1-^14C]18:2n-6 (linoleic acid) to [1-^14C]18:3n-6 (gamma-linolenic acid), respectively. […]
(§2) Radiolabeled fatty acid methyl esters (FAME) were analyzed as previously described (de Antueno et al., 1993, Lipids, 28: 285-290). […]

delta-6-desaturase = type: in vivo, rat; settings: for D6D activity: hepatic microsomes
Experimental: As described in other Examples, female Wistar rats were intraperitoneally (i.p.) injected with 50 mg of streptozotocin per kg of body weight. Three days later, animals received a second dose of streptozotocin (25 mg/kg body weight). Two and 7 weeks after the onset of diabetes, non-fasted control and streptozotocin (blood glucose levels 21 to >33 mmoles/L) treated rats were put under light halothane (15% in mineral oil) anaesthesia and sacrificed by exsanguination between 9:00 and 10:00 a.m. Under these experimental conditions, variations in enzyme activity caused by circadian rhythm (Actis Dato et al., 1973, Lipids, 8: 1-6) can be avoided and a substantial (although submaximal) activity of liver desaturase can be obtained (Actis Dato et al., 1973, Lipids, 8: 1-6 and Inkpen et al., 1969, J. Lipid Res., 10: 277-282). Livers were quickly rinsed with cold 0.9% NaCl solution, weighed and minced with scissors. All procedures were performed at 4° C. unless otherwise specified. Microsomes were isolated by differential ultracentrifugation as previously described (de Antueno et al., 1994, Lipids, 29: 327-331). Briefly, livers were homogenized in a solution (1:3 w/v) containing 0.25 M sucrose, 62 mM potassium phosphate buffer (pH 7.0), 0.15 M KCl, 1.5 mM N-acetylcysteine, 5 mM MgCl2, and 0.1 mM EDTA using 4 strokes of a Potter-Elvehjem tissue homogenizer. […] The absence of mitochondrial contamination was enzymatically assessed as previously described (Kilberg M. S. and Christensen H. N., 1979, Biochemistry, 18: 1525-1530). The protein concentration was measured by the method of Lowry et al. with bovine serum albumin as the standard (Lowry et al., 1951, J. Biol. Chem., 193: 265-275).
as §1, §2

[1] = Plasma phospholipid arachidonic acid content in streptozotocin-induced diabetic rats; type: in vivo, rat
Experimental: Eighteen rats were injected with 75 mg STZ/kg bd wt to induce the diabetic state. After 4 days the blood glucose level in each of the STZ rats was checked. The blood sample was obtained from the tail vein. […] The diabetic rats were housed 2 per cage. After 2 weeks, approximately one half of the diabetic rats and control rats were sacrificed. After 7 weeks, the remaining diabetic and control rats were sacrificed. By sacrificing controls at the same time we eliminated any possible age effect when completing our data analysis. The rats were sacrificed by exsanguination and tissues were removed for fatty acid analyses. […]
The different lipid classes from the RBCs (phospholipids), plasma and liver (phospholipids, free fatty acids, triglycerides and cholesterol esters) were separated using neutral lipid thin-layer chromatography. […] Compounds were detected by spraying the plates with 2,7-dichlorofluorescein and the silica gel containing each of the lipid class bands was scraped from the plate and placed in screw cap test tubes.
Four ml of BF3-methanol was added to the scraped silica gel fractions or the dry cholesterol ester fraction and heated for 30 min at 90° C. […] The fatty acid methyl esters (FAME) were dissolved in HPLC grade hexane and analyzed by gas chromatography. […]

hD6D-1 control region = assay: Luciferase activity of HepG2 clones stably transfected with hD6D-1 control region-luciferase construct pGh4015.1; type: cell-based, human
Experimental: Stable transfection was performed using the HepG2 cell line, which was adapted to grow in tissue culture dishes treated with 0.1% gelatin. The day before transfection, the cells were plated into 60 mm tissue culture dishes, so that they were 85-95% confluent on the day of transfection. For each dish of cells to be transfected, 10 μg of plasmid DNA (pGh4015.1) along with 1 μg of the vector pRSV-NEO (ATCC# 37198), was diluted in 500 μl of Opti-MEM (GIBCO-BRL) without serum. For each dish of cells to be transfected, 10 μl of Lipofectamine 2000 reagent (GIBCO BRL) was diluted in 500 μl of Opti-MEM, and incubated at room temperature for 5 min. The diluted DNA was mixed with the diluted lipofectamine and incubated at room temperature for 20 min. The DNA-lipofectamine complexes (1 ml) were put directly into each dish of cells to be transfected and mixed gently by rocking the dish back and forth The cells were incubated at 37° C. in a CO2 incubator for 24 h Each transfected dish of cells was then passaged into two 150 mm tissue culture dishes. The following day, geneticin (GIBCO BRL) was added to the culture medium at a concentration of 800 μg/ml. The cells were kept in selection for 4 weeks. Clones were transferred into a 96-well plate (one clone per well) until they reached confluence. Subsequently, the clones were transferred to a 24-well plate before been tested for luciferase activity.
The luciferase assays were done using the Luciferase Assay System from Promega (Promega, Wis.). Briefly, the cells grown in a 24well plate, were washed with PBS (Ca^2+ and Mg^2+ free) and lysed with about 100 μl of 1× CCLR (Cell Culture Lysis Reagent, Promega). Twenty μl of cell lysate was dispensed into a luminometer tube. The tube was placed in the luminometer (Berthold #9707, Monolight 3010, PharMingen, San Diego, Calif.) and 100 μl of Luciferase Assay Reagent (Promega) was injected into the tube. The luminometer was programmed to perform a 3-second measurement delay followed by a 15-second measurement read for luciferase activity. The results were expressed in Relative Light Unit per 15 seconds (RLU/15s).
The HepG2 stable clone 19 and 72, were plated in a 24-well plate (one plate per clone) treated with 0.1% gelatin, containing α-MEM supplemented with 10% FBS (Fetal Bovine Serum) and 200 μg/ml of geneticin (all from GIBCO BRL). When the cells reached about 80% confluence, the culture medium was replace with Williams' medium E (GIBCO) containing insulin (1 μM), dexamethasone (1 nM) and 0.27% BSA (Bovine Serum Albumin) all from Sigma. Six wells for each plate were treated with DHA at a concentration of 0, 25, 50 and 100 μM. After an incubation time of 6, 24 and 48 h, the wells were washed with PBS and the cells lysed with 100 μl of 1× CCLR (Promega). The luciferase assays were performed using a single tube luminometer using the Luciferase Assay System from Promega as indicated above.

CN(N=O)C(=O)N[C@H]1C(O)O[C@H](CO)[C@@H](O)[C@@H]1O (stereo partly drawn) [STZ, 2-deoxy-2-[([methylnitroso-amino]carbonyl)amino]-D-glucopyranose]
D5D activity (delta-5-desaturase; 2 weeks after STZ treatment): 195.6 ± 56^b pmol/mg microsomal protein/min | D5D activity (delta-5-desaturase; 7 weeks after STZ treatment): 129.7 ± 30^d pmol/mg microsomal protein/min | D6D activity (delta-6-desaturase; 2 weeks after STZ treatment): 125.4 ± 34^a pmol/mg microsomal protein/min | D6D activity (delta-6-desaturase; 7 weeks after STZ treatment): 102.8 ± 29^c pmol/mg microsomal protein/min | Reduction of delta-6-desaturase activity in hepatic microsomes compared to control rats (delta-6-desaturase; streptozotocin diabetic rats): 37% | Reduction of plasma phospholipid AA content ([1]; 2 week streptozotocin-induced diabetic rats): 31% | Reduction of plasma phospholipid AA content ([1]; 7 week streptozotocin-induced diabetic rats): 27%

CC/C=C\C/C=C\C/C=C\C/C=C\C/C=C\C/C=C\CCC(=O)O [DHA, docosahexaenoic acid]
Luciferase activity (hD6D-1 control region; HepG2 clone 19, DHA 25 μM, 6 h): 3.91E+06 RLU/15 s | Luciferase activity (hD6D-1 control region; HepG2 clone 19, DHA 25 μM, 24 h): 8.33E+06 RLU/15 s | Luciferase activity (hD6D-1 control region; HepG2 clone 19, DHA 25 μM, 48 h): 1.35E+07 RLU/15 s | Luciferase activity (hD6D-1 control region; HepG2 clone 19, DHA 50 μM, 6 h): 3.96E+06 RLU/15 s | Luciferase activity (hD6D-1 control region; HepG2 clone 19, DHA 50 μM, 24 h): 6.32E+06 RLU/15 s | Luciferase activity (hD6D-1 control region; HepG2 clone 19, DHA 50 μM, 48 h): 8.73E+06 RLU/15 s | Luciferase activity (hD6D-1 control region; HepG2 clone 19, DHA 100 μM, 6 h): 2.11E+06 RLU/15 s | Luciferase activity (hD6D-1 control region; HepG2 clone 19, DHA 100 μM, 24 h): 3.87E+06 RLU/15 s | Luciferase activity (hD6D-1 control region; HepG2 clone 19, DHA 100 μM, 48 h): 4.16E+06 RLU/15 s | Luciferase activity (hD6D-1 control region; HepG2 clone 72, DHA 25 μM, 6 h): 8.27E+05 RLU/15 s | Luciferase activity (hD6D-1 control region; HepG2 clone 72, DHA 25 μM, 24 h): 2.66E+06 RLU/15 s | Luciferase activity (hD6D-1 control region; HepG2 clone 72, DHA 25 μM, 48 h): 3.68E+06 RLU/15 s | Luciferase activity (hD6D-1 control region; HepG2 clone 72, DHA 50 μM, 6 h): 6.69E+05 RLU/15 s | Luciferase activity (hD6D-1 control region; HepG2 clone 72, DHA 50 μM, 24 h): 1.43E+06 RLU/15 s | Luciferase activity (hD6D-1 control region; HepG2 clone 72, DHA 50 μM, 48 h): 2.18E+06 RLU/15 s | Luciferase activity (hD6D-1 control region; HepG2 clone 72, DHA 100 μM, 6 h): 3.07E+05 RLU/15 s | Luciferase activity (hD6D-1 control region; HepG2 clone 72, DHA 100 μM, 24 h): 8.55E+05 RLU/15 s | Luciferase activity (hD6D-1 control region; HepG2 clone 72, DHA 100 μM, 48 h): 9.80E+05 RLU/15 s
